Legend:
[1] = target: TGFβR1 (Homo sapiens (Human), UniProt P36897); assay: TGFβR1 kinase inhibition assay (ADP-Glo Kinase Assay); format: biochemical; conditions: 40 nM TGFβR1 in 2x enzyme mix, 5.4 μM ATP in 2x substrate mix, 120 min RT
Experimental: TGFβR1 kinase assay was performed according to the instruction manual of the ADP-Glo™ Kinase Assay kit provided by Promega. Prepare 1× Kinase buffer (50 mM Tris pH7.5, 0.1% BSA, 10 mM MgCl2, 1 mM DTT). Before activation reaction was started, Compounds were dissolved in DMSO and make 100× solution with 3-fold serial dilution for a total of 10 concentrations. Transfer 50 nL compounds to 384-well plate according to plate map using the automated liquid handler. […] Add 5 μL ADP-Glo Reagent to terminate the kinase reaction and deplete the remaining ATP, incubate at RT for 60 minutes. Add 10 μL Kinase Detection Reagent to convert ADP to ATP and allow the newly synthesized ATP to be measured using a luciferin reaction, incubate at RT for 30 minutes. Collect luminescence data with Envision.

[2] = target: TGFβR2 (Homo sapiens (Human), UniProt P37173); assay: TGFβR2 kinase inhibition assay (ADP-Glo); format: biochemical; conditions: 10 uM ATP, 120 min room temperature
Experimental: The TGFβR2 enzyme reaction was carried out as follows: 50 nL of compound in DMSO (or DMSO controls) were stamped into 384 white, low-volume plates. 2.5 μL of 2× enzyme solution (final enzyme concentration was 3 ng/uL in 40 mMTris, 7.5; 20 mM MgCl2; 0.1 mg/mL BSA; 1 mM DTT) was dispensed into assay plate. The plate was then sealed and spun at 1000 rpm for 30 s and incubated at room temperature for 10 min. Followed by addition of 2.5 μL of 2× substrate solution that contains both ATP (to make a final concentration of 10 uM) and TGFβR2 substrate (final concentration of 0.2 ug/uL). The plate was then sealed and spun at 1000 rpm for 30 s and the reaction was then incubated at room temperature for 120 min. After that 5 μL ADP-Glo™ Reagent was added into the assay wells to stop the reaction and deplete unconsumed ATP for 40 min at room temperature; then, 10 μL of Detection Reagent was added into the assay wells, followed by 40 min incubation to develop luminescence. The luminescence signal was then collected on Envision 2104 plate reader.

Chain of TGFβR1 (P36897 34-503): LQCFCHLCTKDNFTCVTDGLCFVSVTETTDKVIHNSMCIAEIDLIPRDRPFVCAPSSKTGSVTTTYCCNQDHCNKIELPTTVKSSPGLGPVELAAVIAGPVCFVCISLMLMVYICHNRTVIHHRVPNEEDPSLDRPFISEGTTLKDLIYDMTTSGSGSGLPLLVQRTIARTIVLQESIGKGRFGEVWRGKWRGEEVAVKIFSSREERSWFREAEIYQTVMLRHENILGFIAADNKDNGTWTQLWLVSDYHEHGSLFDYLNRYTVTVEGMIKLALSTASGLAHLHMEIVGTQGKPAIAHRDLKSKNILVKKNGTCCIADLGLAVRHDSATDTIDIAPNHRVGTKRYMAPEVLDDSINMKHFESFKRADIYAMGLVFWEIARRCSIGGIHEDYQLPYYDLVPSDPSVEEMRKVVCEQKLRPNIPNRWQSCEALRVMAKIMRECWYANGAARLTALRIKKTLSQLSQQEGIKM
Chain of TGFβR2 (P37173 23-567): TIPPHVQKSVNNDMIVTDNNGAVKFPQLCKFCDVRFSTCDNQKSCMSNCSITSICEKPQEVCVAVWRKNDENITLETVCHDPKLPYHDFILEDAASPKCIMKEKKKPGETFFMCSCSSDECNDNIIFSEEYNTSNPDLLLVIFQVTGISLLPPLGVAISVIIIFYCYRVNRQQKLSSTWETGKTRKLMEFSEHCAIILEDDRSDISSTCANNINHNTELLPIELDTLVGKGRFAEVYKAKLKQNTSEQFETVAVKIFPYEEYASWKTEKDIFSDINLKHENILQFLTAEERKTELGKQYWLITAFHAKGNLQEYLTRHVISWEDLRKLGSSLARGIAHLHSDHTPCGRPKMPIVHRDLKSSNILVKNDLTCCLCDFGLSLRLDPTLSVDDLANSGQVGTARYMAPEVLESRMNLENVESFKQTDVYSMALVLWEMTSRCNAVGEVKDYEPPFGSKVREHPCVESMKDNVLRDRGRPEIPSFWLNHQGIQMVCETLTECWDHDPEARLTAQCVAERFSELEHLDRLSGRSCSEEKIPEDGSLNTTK

Row | Compound | IC50 [1] | IC50 [2]
1 | CC(C)(O)c1cc(Nc2cc(Oc3cc(C(F)(F)F)nn3C(C)(C)C)ccn2)ccn1 [Compound 16] | 34 nM | 34000 nM
2 | N#Cc1ccc(Nc2cc(Oc3cc(C(F)(F)F)nn3C3CCOCC3)ccn2)cc1 [Compound 10] | 131 nM | > 100000 nM
3 | CC(C)(O)c1cc(Nc2cc(Oc3cc(C4CC4)nn3C3CCOCC3)ccn2)ccn1 [Compound 1] | 61 nM | 
4 | CC(C)(O)c1cc(Nc2cc(Oc3cc(C(F)(F)F)nn3-c3ccc(C#N)cc3)ccn2)ccn1 [Compound 44] | 141 nM | 
5 | Cc1ccc(Oc2ccnc(Nc3ccnc(C(C)(C)O)c3)c2)c(C2CCOCC2)n1 [Compound 55] | 35 nM | 15000 nM
6 | CC(C)(O)c1cc(Nc2cc(Oc3cn(CC(F)(F)F)nc3C3CCOCC3)ccn2)ccn1 [Compound 69] | 454 nM | > 100000 nM
7 | CC(C)(O)c1cc(Nc2cc(Oc3cc(C(F)(F)F)nn3-c3ccc(F)cc3)ccn2)ccn1 [Compound 35] | 86 nM | 
8 | CC(C)(O)c1cc(Nc2cc(Oc3cc(C4CC4)nn3C(C)(C)C)ccn2)ccn1 [Compound 6] | 46 nM | 
9 | CC(C)(O)c1cc(Nc2cc(Oc3cc(C(F)(F)F)nn3-c3c(F)cccc3F)ccn2)ccn1 [Compound 45] | 13 nM | 21000 nM
10 | CC1(C)OC(=N)c2ccc(Nc3cc(Oc4cc(C5CC5)nn4C4CCOCC4)ccn3)cc21 [Compound 46] | 66 nM | 
11 | CC(C)c1nc(C2CCOCC2)c(Oc2ccnc(Nc3ccnc(C(C)(C)O)c3)c2)s1 [Compound 76] | 90 nM | 
12 | CC(C)(O)c1cc(Nc2cc(Oc3sc(C4CC4)nc3C3CCOCC3)ccn2)ccn1 [Compound 72] | 111 nM | 
13 | Cc1nc(C(F)(F)F)ccc1Oc1ccnc(Nc2ccnc(C(C)(C)O)c2)c1 [Compound 65] | 14 nM | 
14 | C[C@@H]1CC(c2nn(C3CC3)cc2Oc2ccnc(Nc3ccnc(C(C)(C)O)c3)c2)C[C@H](C)O1 (some centres unmarked) [Compound 74] | 17 nM | 
15 | CC(C)(O)c1cc(Nc2cc(Oc3cc(C4CC4)nn3CC(F)(F)F)ccn2)ccn1 [Compound 21] | 37 nM | > 100000 nM
16 | Cc1ccc(-n2nc(C(F)(F)F)cc2Oc2ccnc(Nc3ccnc(C(C)(C)O)c3)c2)cc1 [Compound 34] | 42 nM | 17000 nM
17 | CC(C)(O)c1cc(Nc2cc(Oc3cc(C4CC4)nn3C3CCOCC3)ncn2)ccn1 [Compound 3] | 825 nM | > 100000 nM
18 | Cc1ccc(Oc2ccnc(Nc3ccnc(C(C)(C)O)c3)c2)c(C2CC2)n1 [Compound 58] | 39 nM | 11000 nM
19 | CC(C)(O)c1cc(Nc2cc(Oc3cc(C4CC4)nn3C3CC3)ccn2)ccn1 [Compound 5] | 43 nM | > 100000 nM
20 | CC(C)(O)c1cc(Nc2cc(Oc3cc(C(F)(F)F)nn3CC3CC3)ccn2)ccn1 [Compound 20] | 48 nM | 
21 | CC(C)(O)c1cc(Nc2cc(Oc3cc(C4CC4)nn3[C@@H]3C[C@H]4CC[C@@H](C3)O4)ccn2)ccn1 [Compound 29] | 19 nM | 89000 nM
22 | CC(C)(O)c1cc(Nc2cc(Oc3cc(C(F)(F)F)nn3-c3ccccc3Cl)ccn2)ccn1 [Compound 40] | 71 nM | 

Row | Compound | IC50 [1] | IC50 [2]
23 | CC(C)(O)c1cc(Nc2cc(Oc3cc(C(F)(F)F)nn3C3CCCNC3)ccn2)ccn1 (centres unmarked) [Compound 33] | 49 nM | > 100000 nM
24 | CC(C)(O)c1ccc(Nc2cc(Oc3cc(C(F)(F)F)nn3-c3c(F)cccc3F)ccn2)cn1 [Compound 53] | 18 nM | 56000 nM
25 | CC(C)(O)c1cc(Nc2cc(Oc3cc(C(F)(F)F)nn3-c3cccc(Cl)c3)ccn2)ccn1 [Compound 36] | 56 nM | 
26 | COc1ccc(Oc2ccnc(Nc3ccnc(C(C)(C)O)c3)c2)c(C2CCOCC2)n1 [Compound 56] | 220 nM | 
27 | C[C@@H]1C[C@H](n2nc(C(F)(F)F)cc2Oc2ccnc(Nc3ccnc(C(C)(C)O)c3)c2)C[C@H](C)O1 [Compound 31] | 1040 nM | 
28 | CC(C)(C)n1nc(C2CC2)cc1Oc1ccnc(Nc2ccc(S(N)(=O)=O)cc2)c1 [Compound 15] | 94 nM | > 100000 nM
29 | CC(C)(O)c1cc(Nc2cc(Oc3cn(C4CC4)nc3C3CCC(F)(F)CC3)ccn2)ccn1 [Compound 77] |  | 39000 nM
30 | CC(C)(O)c1cc(Nc2cc(Oc3cc(C(F)(F)F)nn3[C@@H]3C[C@H]4CC[C@@H](C3)O4)ccn2)ccn1 [Compound 49] | 32 nM | 
31 | CC(C)(O)c1cc(Nc2cc(Oc3cn(C4CCCC4)nc3C3CCOCC3)ccn2)ccn1 [Compound 68] | 631 nM | > 100000 nM
32 | CC(C)(O)c1cc(Nc2cc(Oc3cn(C4CCC4)nc3C3CCOCC3)ccn2)ccn1 [Compound 67] | 51 nM | > 100000 nM
33 | CC(C)(O)c1cc(Nc2cc(Sc3cn(C4CC4)nc3C3CCOCC3)ccn2)ccn1 [Compound 70] | 80 nM | 
34 | Cc1ccc(Oc2ccnc(Nc3ccc(S(N)(=O)=O)cc3)c2)c(C2CCOCC2)n1 [Compound 59] | 32 nM | 10000 nM
35 | CC(C)(O)c1ccc(Nc2cc(Oc3cc(C(F)(F)F)nn3-c3ccccc3F)ccn2)cn1 [Compound 52] | 21 nM | 16000 nM
36 | Cc1ccc(Oc2ccnc(Nc3ccc(C(C)(C)O)nc3)c2)c(C)n1 [Compound 62] | 29 nM | 
37 | CC(C)(O)c1cc(Nc2cc(Oc3cc(C(F)(F)F)nn3C3CCNCC3)ccn2)ccn1 [Compound 26] | 88 nM | 
38 | CC(C)n1nc(C(F)(F)F)cc1Oc1ccnc(Nc2ccnc(C(C)(C)O)c2)c1 [Compound 25] | 66 nM | 
39 | CC(C)(O)c1cc(Nc2cc(Oc3c(C4CCOCC4)nn4c3CCC4)ccn2)ccn1 [Compound 71] | 25 nM | 
40 | CC1(C)OC(=N)c2ccc(Nc3cc(Oc4cn(C5CC5)nc4C4CCOCC4)ccn3)cc21 [Compound 78] | 22 nM | > 100000 nM
41 | CC(C)(O)c1cc(Nc2cc(Oc3cc(C(F)(F)F)nn3[C@H]3C[C@H]4CC[C@@H](C3)O4)ccn2)ccn1 [Compound 50] | 113 nM | 
42 | C[C@@H]1C[C@@H](n2nc(C3CC3)cc2Oc2ccnc(Nc3ccnc(C(C)(C)O)c3)c2)C[C@H](C)O1 [Compound 18] | > 10000 nM | 
43 | CC(C)(O)c1cc(Nc2cc(Oc3cc(C(F)(F)F)nn3C3CNC3)ccn2)ccn1 [Compound 24] | 223 nM | 
44 | C[C@@H]1C[C@@H](n2nc(C(F)(F)F)cc2Oc2ccnc(Nc3ccnc(C(C)(C)O)c3)c2)C[C@H](C)O1 [Compound 30] | 89 nM | 

Row | Compound | IC50 [1] | IC50 [2]
45 | CC(C)(O)c1cc(Nc2cc(Oc3ccc(C(F)(F)F)nc3C3CCOCC3)ccn2)ccn1 [Compound 60] | 50 nM | 
46 | Cc1ccc(Oc2ccnc(Nc3ccnc(C(C)(C)O)c3)c2)c(C(F)(F)F)n1 [Compound 63] | 82 nM | 
47 | CC(C)(O)c1cc(Nc2cc(Oc3cc(C(F)(F)F)nn3-c3cncnc3)ccn2)ccn1 [Compound 42] | 263 nM | 
48 | CC(C)(O)c1cc(Nc2cc(Oc3cc(C(F)(F)F)nn3-c3cccnc3)ccn2)ccn1 [Compound 37] | 283 nM | 
49 | CC(C)(O)c1cc(Nc2cc(Oc3cn(C4CC4)nc3C(=O)Nc3ccccc3F)ccn2)ccn1 [Compound 80] | 57 nM | 
50 | CC(C)(O)c1cc(Nc2cc(Oc3cc(C(F)(F)F)nn3C3CC3)ccn2)ccn1 [Compound 27] | 58 nM | 
51 | CC(C)(O)c1cc(Nc2cc(Oc3cc(C(F)(F)F)nn3C3CCNC3)ccn2)ccn1 (centres unmarked) [Compound 32] | 868 nM | 
52 | CC(C)(O)c1cc(Nc2cc(Oc3ccc(C4CC4)nc3C3CCOCC3)ccn2)ccn1 [Compound 61] | 116 nM | 
53 | Cc1cc(Oc2ccnc(Nc3ccnc(C(C)(C)O)c3)c2)n(C2CCOCC2)n1 [Compound 4] | 60 nM | 
54 | CC1(C)OC(=O)c2ccc(Nc3cc(Oc4cc(C5CC5)nn4C4CCOCC4)ccn3)cc21 [Compound 47] | 103 nM | 
55 | CC(C)(O)c1cc(Nc2cc(Oc3cc(C(F)(F)F)nn3-c3ccncc3)ccn2)ccn1 [Compound 48] | 132 nM | 
56 | CC(C)(O)c1cc(Nc2cc(Oc3cc(C(F)(F)F)nn3-c3ccc(Cl)cc3)ccn2)ccn1 [Compound 43] | 159 nM | 
57 | NS(=O)(=O)c1ccc(Nc2cc(Oc3cn(C4CC4)nc3C3CCOCC3)ccn2)cc1 [Compound 73] | 14 nM | 
58 | CC(C)(O)c1cc(Nc2cc(Oc3cc(C(F)(F)F)nn3-c3ccccc3C#N)ccn2)ccn1 [Compound 51] | 55 nM | 
59 | COc1ccc(Oc2ccnc(Nc3ccnc(C(C)(C)O)c3)c2)c(C)n1 [Compound 64] | 32 nM | 
60 | C[C@@H]1C[C@H](n2nc(C3CC3)cc2Oc2ccnc(Nc3ccnc(C(C)(C)O)c3)c2)C[C@H](C)O1 [Compound 19] | 7710 nM | 
61 | COc1cc(Oc2ccnc(Nc3ccnc(C(C)(C)O)c3)c2)n(C2CCOCC2)n1 [Compound 39] | 126 nM | 
62 | CCn1nc(C(F)(F)F)cc1Oc1ccnc(Nc2ccnc(C(C)(C)O)c2)c1 [Compound 22] | 54 nM | 
63 | Cc1ccc(Oc2ccnc(Nc3ccnc(C(C)(C)O)c3)c2)c(CC(C)C)n1 [Compound 66] | 4 nM | 
64 | CC(C)(C)c1nc(C2CC2)sc1Oc1ccnc(Nc2ccnc(C(C)(C)O)c2)c1 [Compound 75] | 6690 nM | 

— patent US11691981B2, “Heterocyclic compounds, preparation methods therefor, and methods of uses thereof” (INVENTISBIO CO., LTD., priority 2019, dated 2023)
